According to ChEMBL document CHEMBL3102825, “Exploration of a series of 5-arylidene-2-thioxoimidazolidin-4-ones as inhibitors of the cytolytic protein perforin” (J Med Chem, 2013):
Active and inactive are the calls of the source. No cut-off for these calls is given here.

Biological target: Perforin-1 (Mus musculus) (UniProt P10820)
Experiment: Reversible binding affinity to recombinant mouse perforin by SPR analysis

Chain of Perforin-1 (Mus musculus) (P10820 whole entry, looked up): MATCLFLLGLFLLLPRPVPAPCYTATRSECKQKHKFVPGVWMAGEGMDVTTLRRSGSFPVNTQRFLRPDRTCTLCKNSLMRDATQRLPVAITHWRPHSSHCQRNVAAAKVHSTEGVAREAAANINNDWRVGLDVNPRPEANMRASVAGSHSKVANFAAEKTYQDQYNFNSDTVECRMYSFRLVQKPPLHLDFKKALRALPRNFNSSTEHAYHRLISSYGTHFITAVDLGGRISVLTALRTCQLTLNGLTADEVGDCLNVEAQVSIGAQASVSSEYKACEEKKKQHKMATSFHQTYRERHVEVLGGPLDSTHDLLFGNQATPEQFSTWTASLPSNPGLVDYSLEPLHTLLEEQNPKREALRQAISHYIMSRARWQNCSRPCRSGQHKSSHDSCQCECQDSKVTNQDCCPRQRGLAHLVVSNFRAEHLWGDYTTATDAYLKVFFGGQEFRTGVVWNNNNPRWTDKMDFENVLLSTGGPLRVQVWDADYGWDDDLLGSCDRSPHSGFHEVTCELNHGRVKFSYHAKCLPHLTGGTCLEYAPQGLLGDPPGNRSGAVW

Row | SMILES | Activity
1 | O=C1NC(=S)[N-]/C1=C/c1ccc(-c2ccc3c(c2)CCNC3=O)s1.[Na+] | Active
2 | CC1c2cc(-c3ccc(/C=C4/[N-]C(=S)NC4=O)s3)ccc2C(=O)N1C.[Na+] (configuration not stated) | Active
